Patent US20020137929A1, “1 - (3-heterocyclylphenyl) isothiourea, -isourea, -guanidine and -amidine herbicidal agents” (Intellectual Property Department, BASF Aktiengesellschaft, priority 1998, published 2002)

How the values were obtained:
[1] = tested on: GALAP (Galium); test: Postemergence herbicidal evaluation; format: in vivo, Galium aparine; conditions: postemergence
How it was run: (§1)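 ~2-wk seedlings; postemergence spray, 40 psi; vehicle 1:1 acetone:water + 0.5% Tween 20; rate ≈0.0156–0.500 kg/ha; greenhouse hold; scored 4–5 wk after treatment, 0–9 scale vs control; repeat tests averaged.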

[2] = tested on: IPOHE (Morningglory, Ivyleaf); test: Postemergence herbicidal evaluation; format: in vivo, Ipomoea hederacea; conditions: postemergence
How it was run: as §1

[3] = tested on: SETVI (Foxtail, Green); test: Postemergence herbicidal evaluation; format: in vivo, Setaria viridis; conditions: postemergence
How it was run: as §1

[4] = tested on: TRZAWR (Wheat, Winter, cv Riband); test: Postemergence herbicidal evaluation; format: in vivo, Triticum aestivum; conditions: postemergence
How it was run: as §1

[5] = tested on: ABUTH (Velvetleaf); test: Preemergence herbicidal evaluation; format: in vivo, Abutilon theophrasti; conditions: rated 4-5 weeks after treatment
How it was run: (§2)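 In this greenhouse assay, monocot and dicot seeds are planted in soil and treated prior to emergence with an aqueous acetone spray (about 0.0156-0.500 kg/ha). Plants are assessed visually against control on a 0-9 scale after 4-5 weeks.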

[6] = tested on: IPOHE (Morningglory, Ivyleaf); test: Preemergence herbicidal evaluation; format: in vivo, Ipomoea hederacea; conditions: rated 4-5 weeks after treatment
How it was run: as §2

[7] = tested on: ECHCG (Barnyardgrass); test: Preemergence herbicidal evaluation; format: in vivo, Echinochloa crus-galli; conditions: rated 4-5 weeks after treatment
How it was run: as §2

[8] = tested on: SETVI (Foxtail, Green); test: Preemergence herbicidal evaluation; format: in vivo, Setaria viridis; conditions: rated 4-5 weeks after treatment
How it was run: as §2

[9] = tested on: ZEAMX (Corn, Field); test: Preemergence herbicidal evaluation; format: in vivo, Zea mays; conditions: rated 4-5 weeks after treatment
How it was run: as §2

[10] = tested on: ECHORC (Watergrass (Calif.)); test: Preemergence weed control under flooded paddy conditions; format: in vivo, Echinochloa oryzoides; conditions: rated 3-4 weeks after treatment
How it was run: (§3)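 Seeds or propagules sown in silt loam kept flooded 1.5-3 cm; compounds in 50/50 acetone/water pipetted into flood water at about 0.0313 to 0.500 kg/ha. Greenhouse; visual 0-9 rating versus untreated control 3-4 weeks after treatment.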

[11] = tested on: CYPIR (Rice Flatsedge); test: as above; format: in vivo, Cyperus iria; conditions: rated 3-4 weeks after treatment
How it was run: as §3

[12] = tested on: MOOVA (Monochoria); test: as above; format: in vivo, Monochoria vaginalis; conditions: rated 3-4 weeks after treatment
How it was run: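 Visual injury scored 0-9 against control three to four weeks post-treatment, greenhouse-grown. Application: acetone/water (50/50) solutions dosed directly into flood water (1.5-3 cm over silt loam, planted top 0.5 cm), roughly 0.0313 to 0.500 kg/ha active ingredient.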

With `CCCCOC(=O)CN1C(=O)CSC1=Nc1cc(-n2c(=O)cc(C(F)(F)F)n(C)c2=O)c(F)cc1Cl` [Compound 111] the “herbicidal rating GALAP” value ([1]; rate 0.0158 kg/ha) was 0.0, the “herbicidal rating GALAP” value ([1]; rate 0.0315 kg/ha) was 0.0 and the “herbicidal rating GALAP” value ([1]; rate 0.0630 kg/ha) was 1.0. The “herbicidal rating IPOHE” value ([2]; rate 0.0158 kg/ha) was 4.0, the “herbicidal rating IPOHE” value ([2]; rate 0.0315 kg/ha) was 9.0 and the “herbicidal rating IPOHE” value ([2]; rate 0.0630 kg/ha) was 9.0. For the same compound, the “herbicidal rating SETVI” value ([3]; rate 0.0158 kg/ha) was 1.0, the “herbicidal rating SETVI” value ([3]; rate 0.0315 kg/ha) was 9.0 and the “herbicidal rating SETVI” value ([3]; rate 0.0630 kg/ha) was 9.0. For the same compound, the “herbicidal rating TRZAWR” value ([4]; rate 0.0158 kg/ha) was 2.5, the “herbicidal rating TRZAWR” value ([4]; rate 0.0315 kg/ha) was 4.5 and the “herbicidal rating TRZAWR” value ([4]; rate 0.0630 kg/ha) was 5.5. The “Preemergence herbicidal rating ABUTH” value ([5]; rate 0.0156 kg/ha) was 1.0, the “Preemergence herbicidal rating ABUTH” value ([5]; rate 0.0313 kg/ha) was 0.0 and the “Preemergence herbicidal rating ABUTH” value ([5]; rate 0.0625 kg/ha) was 2.0. For the same compound, the “Preemergence herbicidal rating ABUTH” value ([5]; rate 0.1250 kg/ha) was 9.0, the “Preemergence herbicidal rating ABUTH” value ([5]; rate 0.2500 kg/ha) was 9.0 and the “Preemergence herbicidal rating IPOHE” value ([6]; rate 0.0156 kg/ha) was 0.0. For the same compound, the “Preemergence herbicidal rating IPOHE” value ([6]; rate 0.0313 kg/ha) was 0.0, the “Preemergence herbicidal rating IPOHE” value ([6]; rate 0.0625 kg/ha) was 0.0 and the “Preemergence herbicidal rating IPOHE” value ([6]; rate 0.1250 kg/ha) was 9.0. The “Preemergence herbicidal rating IPOHE” value ([6]; rate 0.2500 kg/ha) was 7.0, the “Preemergence herbicidal rating ECHCG” value ([7]; rate 0.0156 kg/ha) was 0.0 and the “Preemergence herbicidal rating ECHCG” value ([7]; rate 0.0313 kg/ha) was 0.0. For the same compound, the “Preemergence herbicidal rating ECHCG” value ([7]; rate 0.0625 kg/ha) was 0.0, the “Preemergence herbicidal rating ECHCG” value ([7]; rate 0.1250 kg/ha) was 0.0 and the “Preemergence herbicidal rating ECHCG” value ([7]; rate 0.2500 kg/ha) was 4.0. The “Preemergence herbicidal rating SETVI” value ([8]; rate 0.0156 kg/ha) was 0.0, the “Preemergence herbicidal rating SETVI” value ([8]; rate 0.0313 kg/ha) was 0.0 and the “Preemergence herbicidal rating SETVI” value ([8]; rate 0.0625 kg/ha) was 1.0. The “Preemergence herbicidal rating SETVI” value ([8]; rate 0.1250 kg/ha) was 7.0, the “Preemergence herbicidal rating SETVI” value ([8]; rate 0.2500 kg/ha) was 7.0 and the “Preemergence herbicidal rating ZEAMX” value ([9]; rate 0.0156 kg/ha) was 0.0. For the same compound, the “Preemergence herbicidal rating ZEAMX” value ([9]; rate 0.0313 kg/ha) was 0.0, the “Preemergence herbicidal rating ZEAMX” value ([9]; rate 0.0625 kg/ha) was 0.0 and the “Preemergence herbicidal rating ZEAMX” value ([9]; rate 0.1250 kg/ha) was 4.0. The “Preemergence herbicidal rating ZEAMX” value ([9]; rate 0.2500 kg/ha) was 4.0, the “ECHORC herbicidal effect rating” value ([10]; 0.0313 kg/ha) was 0.0 and the “ECHORC herbicidal effect rating” value ([10]; 0.0625 kg/ha) was 3.0. The “ECHORC herbicidal effect rating” value ([10]; 0.1250 kg/ha) was 6.0, the “ECHORC herbicidal effect rating” value ([10]; 0.2500 kg/ha) was 7.0 and the “CYPIR herbicidal effect rating” value ([11]; 0.0313 kg/ha) was 0.0. The “CYPIR herbicidal effect rating” value ([11]; 0.0625 kg/ha) was 3.0, the “CYPIR herbicidal effect rating” value ([11]; 0.1250 kg/ha) was 4.0 and the “CYPIR herbicidal effect rating” value ([11]; 0.2500 kg/ha) was 5.0. For the same compound, the “MOOVA herbicidal effect rating” value ([12]; 0.0313 kg/ha) was 3.0, the “MOOVA herbicidal effect rating” value ([12]; 0.0625 kg/ha) was 4.0 and the “MOOVA herbicidal effect rating” value ([12]; 0.1250 kg/ha) was 4.0. For the same compound, the “MOOVA herbicidal effect rating” value ([12]; 0.2500 kg/ha) was 4.0.
